Source: ChEMBL document CHEMBL3507680, “University of Dundee, Gates Library screen for HepG2 cell viability”

Assay: Human HepG2 cell viability assay in 384 well format
Format: toxicity, cell-based
Set-up: dose 125 nL, time 70.5 hour; cytotoxicity at 70.5 h: concentration not given beside the values
Details: HepG2 cells, read-out: Inhibition

SMILES	cytotoxicity at 70.5 h
CC1(NC(=O)CNC(=O)C(C)(C)C)CCc2ccccc2C1 (stereo not drawn)	-7.61%
CC(C)COc1cncc(N(C)C2CCN(c3ncccn3)CC2)n1	-12%
CC(C)Cn1ncc(C(=O)NS(=O)(=O)C2CCCC2)c1C1CC1	-8.4%
CCN(C(=O)CN1CCCN(c2nc(C)ns2)CC1)C1CC1	-3.69%
CCS(=O)(=O)N1CCCN(CCCOC)CC1	-6.15%
Cc1cnn(C2CN(CCOc3cccc(C#N)c3)C2)c1	-5.43%
Cn1c(SCc2noc(-c3ccsc3)n2)nnc1C1CCS(=O)(=O)C1 (stereo not drawn)	-4.08%
Cc1noc(C)c1C(=O)NCCc1cccs1	0.104%
COc1ccc(CN2CCCN(c3cc(C(N)=O)ccn3)CC2)cc1	9.62%
COc1cccc(COCC(=O)NC(C(N)=O)c2ccccc2)c1 (stereo not drawn)	3.41%
Cc1c(-c2ccncc2)n[nH]c1NC(=O)CCOC(C)C	-4.44%
CNS(=O)(=O)c1ccccc1N1CCN(C(C)C(N)=O)CC1 (stereo not drawn)	-3.93%
CNS(=O)(=O)c1ccccc1N1CCN(C(=O)NC(C)C)CC1	-5.21%
CC(C)N1CCC(NC(=O)NCCC(=O)NCc2ccccc2)C1 (stereo not drawn)	10.4%
CCc1noc(C)c1C(=O)N1CCN(c2nc(C)cc(OC)n2)CC1	5.53%
CNS(=O)(=O)c1ccccc1N1CCN(C(C)C(=O)OC)CC1 (stereo not drawn)	-3.28%
CNC(=O)COc1ccccc1CNC1CCc2nc(C)nn2C1 (stereo not drawn)	-6.32%
CCN1CCN(C2CCN(Cc3ccc(Cl)s3)CC2)C1=O	1.3%
CC(C)(C)C(=O)NCCC(=O)NS(=O)(=O)c1cccc(C#N)c1	15.8%
CN1CCN(C2CCN(Cc3ccc(Cl)s3)CC2)C1=O	-0.237%
Cc1cc(C2CCCN(C(=O)COc3ccccc3F)C2)n[nH]1 (stereo not drawn)	12.5%
CCCN(C(=O)c1ccc(-n2ccnn2)cc1)c1cccnc1	-3.08%
CN(Cc1ncnn1C)C(=O)CCCn1ccc2cc(Cl)ccc21	-1.32%
O=C(c1ccc(-n2ccnn2)cc1)N(CC1CC1)c1cccnc1	5.29%

SMILES	cytotoxicity at 70.5 h
Cc1ccccc1CCCN1C(=O)CC2(CCSC2)C1=O (stereo not drawn)	2.27%
Cc1nc(CN2CCC(C(=O)N(C)C3CCC(C)CC3)CC2)cs1 (stereo not drawn)	-3.95%
Cc1cc2n(n1)CC(CNC1CCN(C(=O)C3CC3)CC1)CN2 (stereo not drawn)	16.7%
COc1ccnc(N2CCN(C(=O)c3cc(C4CC4)[nH]n3)CC2)n1	-5.93%
CC(C)c1cc(C(=O)N2CCCN(Cc3ccccc3)CC2)n[nH]1	-5.87%
Cc1ccc(CNC(=O)NC2CCN(CC(F)F)CC2)cc1	-4.96%
Cc1noc(CCCC(=O)NC(C)c2nnc3n2CCCCC3)n1 (stereo not drawn)	-1.92%
COc1ccnc(N2CCN(C(=O)c3cscn3)CC2)n1	-2.19%
Cc1cc2n(n1)CC(CNC1CCN(c3ccccn3)CC1)CN2 (stereo not drawn)	-0.0737%
Cc1nc(CN2CCC(CNC(=O)CCC3CCCC3)CC2)oc1C	-2.1%
CC(C)(C)S(=O)(=O)CCNC(=O)c1cnc(-c2ccccc2)nc1	-0.525%
Cc1nc(CN2CCC(CNC(=O)C3(C#N)CCCC3)CC2)oc1C	-5.03%
CCOc1ccc(NS(=O)(=O)c2cc(C)c(C(=O)O)s2)c(C)c1	-3.91%
O=C(NCc1cccc(-n2cncn2)c1)NCC(C1CC1)C1CC1	-5.02%
CCC(CC)c1cc(CNC(=O)N2CCCC(C(=O)NC)C2)on1 (stereo not drawn)	-0.471%
Cc1cnn(CC2CN(CCS(=O)(=O)C(F)(F)F)CCO2)c1 (stereo not drawn)	23.8%
c1cc(CNCc2ccnc(N3CCCC3)c2)c2c(c1)OCO2	-6.8%
CC1CN(c2cc(CNCc3cccc4c3OCCO4)ccn2)CCO1 (stereo not drawn)	-10.3%
COc1ccc(C(=O)O)c(OCC(=O)NC(C)c2ccc(F)cc2)c1 (stereo not drawn)	-6.92%
c1cc(CNCc2ccnc(N3CCOCC3)c2)c2c(c1)OCCCO2	-9.7%
Cc1nc(CNC(=O)[C@@H]2CCCN2C(=O)OC(C)(C)C)cs1	-7.16%
Cc1cn(CC(=O)NC2CCN(CC3CC3)CC2)c2ccccc12	-9.9%
CC(C)(C)OC(=O)N1CCCCC1C(=O)NCc1cc[nH]n1 (stereo not drawn)	-7.48%
N#Cc1ccnc(N2CCN(CC(O)c3ccc(F)c(F)c3)CC2)c1 (stereo not drawn)	-2.47%

SMILES	cytotoxicity at 70.5 h
N#Cc1ccnc(N2CCN(CC(O)c3ccc(F)cc3)CC2)c1 (stereo not drawn)	-0.587%
O=C(Nc1cccc(N2CCN(CC3CC3)CC2)c1)C1CCOC1 (stereo not drawn)	-4.69%
Cc1cn(CC(=O)NCC(=O)NC2CC2)c2ccccc12	-0.742%
O=C(Nc1cccc(N2CCN(CC3CC3)CC2)c1)C1CCCO1 (stereo not drawn)	17%
O=S(=O)(CCCN1CCOC(Cn2cccn2)C1)c1ccccc1 (stereo not drawn)	2.06%
Cc1cn(CC(=O)NC2CCN(C(C)C)CC2)c2ccccc12	-1.25%
CNC(=O)CN1CCC(NC(=O)Cn2cc(C)c3ccccc32)CC1	0.492%
Cc1cnn(CC2CN(CCCS(C)(=O)=O)CCO2)c1 (stereo not drawn)	-0.801%
N#Cc1ccnc(N2CCN(CC(O)c3c(F)cccc3F)CC2)c1 (stereo not drawn)	15.3%
O=C(NC1CCS(=O)(=O)C1)c1sccc1OC(F)F (stereo not drawn)	0.608%
CN1CCN(C(=O)C2CCCc3[nH]ncc32)CC1 (stereo not drawn)	-1.9%
Cc1ccc2c(c1)C(NCc1nnc3n1CCCCC3)CCCO2 (stereo not drawn)	11.8%
Cc1cnc(NC(=O)N2CCOCC2)s1	-2.62%
Cc1cnc(NC(=O)N2CCCCCC2)s1	-4.75%
CCN(CC(=O)NC(C)C)S(=O)(=O)N1CCCCC1C (stereo not drawn)	-3.14%
Cc1noc(C)c1CN1CCN(C(=O)CCn2cncn2)CC1	-6%
CSCC(C)(O)CNC(=O)c1ccc(F)cc1Br (stereo not drawn)	-4.95%
CN(Cc1noc(C2CC2)n1)CC1CCN(CCO)CC1	14.4%
Cc1noc(CN(C)CC2CCN(CCO)CC2)n1	5%
O=C(NCc1ccccc1CN1CCOCC1)c1ccc(Br)cc1F	2.01%
COc1ccc(C(CNC(=O)c2cnc(C)cn2)N2CCOCC2)cc1 (stereo not drawn)	-3.63%
CN1CCN(Cc2ccccc2CNC(=O)c2ccc(Cl)cc2F)CC1	3.69%
CN1CCN(Cc2ccccc2CNC(=O)c2cc(Br)ccc2F)CC1	10.8%
Cc1ccccc1N1CCN(C(=O)c2cccnc2-n2cncn2)CC1	-6.93%

SMILES	cytotoxicity at 70.5 h
CC(C(=O)NCc1ccnc(OC2CCCC2)c1)n1cncn1 (stereo not drawn)	-3.9%
N#Cc1cccnc1NCCNC(=O)N1CCSCC1	9.49%
N#Cc1cccnc1NCCNC(=O)N1CCCC(N2CCCC2)C1 (stereo not drawn)	10.7%
COc1ccccc1C1(CNc2nnc(C)c(C)c2C#N)CCOCC1	-5.67%
CCN(CC)C(=O)CSc1ccc(C(F)(F)F)cn1	-6.72%
O=C(Cc1cccc(F)c1)NCCNCC1CNc2ccnn2C1 (stereo not drawn)	15.5%
CC(C)C(=O)NCc1ccnc(Oc2ccc(F)cc2)c1	-5.04%
CCN1CCN(C(=O)c2ccnc(N(C)C)c2)CC1	3.26%
CC(NC(N)=O)C(=O)NCc1ccnc(Oc2ccc(F)cc2)c1 (stereo not drawn)	-0.577%
CC(C)(C)c1noc(OCC(=O)NCC(F)(F)F)n1	-0.303%
CC(C)(C)c1noc(OCC(=O)NC2CCCC2)n1	0.264%
CN(C)c1cccc(C(=O)NCC2(O)CCOCC2)c1	-0.873%
Cc1nnc(NCC2(c3ccccc3)CCC2)c(C#N)c1C	2.86%
CCc1nnc(CN2CCN(C(C)=O)CC2)o1	-1.65%
COCC(=O)N1CCN(Cc2nnc(C(C)(C)C)o2)CC1	-1.83%
CCC(C)C(=O)NCc1cccc(OCCN(C)C2CCOCC2)c1 (stereo not drawn)	16.4%
O=C(c1cccnc1-n1cncn1)N1CCC(Nc2ccccc2)CC1	-0.978%
Cc1cnn(CC2CCCCN2CC(=O)N(C)Cc2ccc(C)o2)c1 (stereo not drawn)	-2.13%
Cc1ccc(CN(C)C(=O)CN2CCCC2c2cnn(C)c2)o1 (stereo not drawn)	16.6%
Cc1cnn(CC2CCCN2CC(=O)N(C)Cc2ccsc2)c1 (stereo not drawn)	-2.74%
C=C(C)CNC1CCCN(Cc2noc(C3CC3)n2)C1 (stereo not drawn)	-5.26%
C1CCC(CNC2CCCN(Cc3noc(C4CC4)n3)C2)C1 (stereo not drawn)	-10.4%
CCC(NCc1ncc[nH]1)c1nc(C(F)(F)F)cs1 (stereo not drawn)	-4.3%
O=C(NC1(c2nccs2)CCCC1)c1cc(C2CC2)on1	-3.31%

SMILES	cytotoxicity at 70.5 h
N#Cc1cc(Br)ccc1NC1CCN(CC(N)=O)CC1	-2.02%
N#Cc1c(N2CCN(CC3CCOC3)CC2)nc2ccccn12 (stereo not drawn)	-1.45%
CC(C)N1CCC(Nc2ccn(Cc3ccccn3)n2)C1=O (stereo not drawn)	1.71%
COc1ccccc1C(=O)N1CCC(O)(c2cccc(C)c2C)CC1	11.7%
Cc1cnn(CC2CCCN2C(=O)c2sccc2C#N)c1 (stereo not drawn)	-2.76%
O=c1oc(-c2ccc(F)cc2)nn1CCc1ccncc1	-9.83%
O=c1oc(-c2ccc(F)cc2)nn1CCS(=O)(=O)c1ccccc1	-9.58%
CC(=O)Nc1nc(C(=O)NCCOc2ccccc2)cs1	-6.89%
CC(=O)Nc1nc(C(=O)NCCOc2ccc(C)cc2)cs1	13.3%
CCOCc1ccccc1CNc1ccc2nncn2n1	-5.87%
Cn1ccnc1COc1ccc(CSc2nnnn2C2CC2)cc1	6.53%
NC(=O)Cn1ccc(NC(=O)C2(c3ccc(F)cc3)CC2)n1	-11.2%
Cc1ccc(CN(C)C(=O)CN2CCCC2c2cnn(C)c2)cc1 (stereo not drawn)	-6.75%
O=C(CNc1ccc(F)cc1OCC(F)(F)F)NCc1ccco1	-10.6%
CCOc1cc(C(=O)N(C)C)ccc1NC(=O)c1ccsc1	-9.1%
Cc1cc(CNC(=O)Cc2cccs2)ccc1S(C)(=O)=O	4.24%
Cc1cccc(OC2CCN(c3nccnc3C#N)CC2)n1	4.46%
Cc1cccc(OC2CCN(c3ccc(C#N)cn3)CC2)n1	-1.77%
O=C(N1CCOCC1)N1CCN(c2ccnc3ccsc23)CC1	39.2%
CC1CCN(S(=O)(=O)N2CCn3cccc3C2C)CC1 (stereo not drawn)	-4.61%
c1cc(CNCc2ccnc(N3CCOCC3)c2)c2c(c1)OCO2	-8.43%
COc1c(CNC2CCOc3c(Cl)cccc32)c(C)nn1C (stereo not drawn)	12.2%
